From ChEMBL document CHEMBL1133933, “Imidazolopyrazinones as potential antioxidants” (Bioorg Med Chem Lett, 2001) come the findings set out here.

SMILES strings stand for the structures.

Assay [1] can be described thus: Reaction rate constant of the compound.
Assay [2] can be described thus: Krel expressed as Ki with respect to Ktrolox.

In turn, `Cl.Oc1c(Cc2ccccc2)nc2cnccn12` yielded a reaction rate constant in assay [1] of 28000 M⁻¹ s⁻¹. The molecule also returned a Krel in assay [2] of 1.6.

In turn, `Cl.Oc1ccc(-c2cn3c(O)c(-c4ccccc4)nc3cn2)cc1` had a reaction rate constant in assay [1] of 105000 M⁻¹ s⁻¹. Also, the Krel in assay [2] came out at 6.2.

In the case of `Cc1nc2cnc(-c3ccc(O)cc3)cn2c1O.Cl`, the reaction rate constant in assay [1] was found to be 210000 M⁻¹ s⁻¹. The molecule also yielded a Krel in assay [2] of 12.3.

In the case of `COc1ccc(-c2cn3c(O)c(Cc4ccccc4)nc3cn2)cc1.Cl`, the reaction rate constant in assay [1] was 160000 M⁻¹ s⁻¹. The molecule further registered a Krel in assay [2] of 9.4.

Take `Cl.Oc1c(-c2ccccc2)nc2cnccn12`: the reaction rate constant in assay [1] stood at 84000 M⁻¹ s⁻¹. In assay [2], this molecule returned a Krel of 4.9.

Take `Oc1ccc(Cc2nc3c(Cc4ccccc4)nc(-c4ccc(O)cc4)cn3c2O)cc1` [COELENTERAZINE]: the reaction rate constant in assay [1] was 120000 M⁻¹ s⁻¹. This molecule also yielded a Krel in assay [2] of 7.1.

With `Cc1c(C)c2c(c(C)c1O)CCC(C)(C(=O)O)O2` (stereo unspecified) [TROLOX], the reaction rate constant in assay [1] turned out to be 17000 M⁻¹ s⁻¹. The molecule also registered a Krel in assay [2] of 1.

In assay [1], `Cc1nc2cnc(-c3ccccc3)cn2c1O.Cl` had a reaction rate constant of 170000 M⁻¹ s⁻¹. The molecule also came in with a Krel in assay [2] of 10.

For `COc1ccc(-c2cn3c(O)c(C)nc3cn2)cc1.Cl`, the reaction rate constant in assay [1] was found to be 280000 M⁻¹ s⁻¹. The Krel in assay [2] was determined as 16.5.

The molecule `Cl.Oc1c(Cc2ccccc2)nc2cnc(-c3ccccc3)cn12` gave a reaction rate constant in assay [1] of 65000 M⁻¹ s⁻¹. In assay [2], this molecule came in with a Krel of 3.8.

In the case of `COc1ccc(-c2cn3c(O)c(Cc4ccc(O)cc4)nc3c(Cc3ccccc3)n2)cc1`, the reaction rate constant in assay [1] came out at 96000 M⁻¹ s⁻¹. In assay [2], this molecule came in with a Krel of 5.6.

On to `Cl.Oc1ccc(-c2cn3c(O)c(Cc4ccccc4)nc3cn2)cc1`, for which, in assay [1], the reaction rate constant turned out to be 33000 M⁻¹ s⁻¹. The Krel in assay [2] came to 1.9.

On to `Cc1nc2cnccn2c1O.Cl`, for which the reaction rate constant in assay [1] was found to be 60000 M⁻¹ s⁻¹. Moreover, the Krel in assay [2] amounted to 3.5.
